We go through three compounds from patent US20020137750A1, “Amidine derivatives which are inhibitors of nitric oxide synthase” (priority 1999, published 2002).

As for `N=C(Nc1ccc(OC2CCCC2)c(CN2CCC[C@@H]2CO)c1)c1cccs1` [Example 21, N-(4-(Cyclopentyloxy)-3{[(2R)-2-(Hydroxymethyl)Pyrrolidinyl]Methyl}Phenyl)-2-Thiophenecarboximidamide], the melting point was in the range of 126 to 127 °C.
The same measure for `CN(CCO)Cc1cc(NC(=N)c2cccs2)ccc1C1CCCC1` [Example 30, N-(4-Cyclopentyl-3-{[(2-Hydroxyethyl)(Methyl)Amino]Methyl}Phenyl)-2-Thiophenecarboximidamide]: 116 to 118 °C.
As for `N=C(Nc1ccc(C2CCCC2)c(CN2CCC[C@H]2CO)c1)c1cccs1` [Example 31, N-(4-Cyclopentyl-3-{[(2S)-2-(Hydroxymethyl)Pyrrolidinyl]Methyl}Phenyl)-2-Thiophenecarboximidamide], the figure is 132 to 133 °C.
